Measured values published in US20100184698A1, “USE OF A […] […] A […] AGENT” (priority 2007, published 2010).
Like-named read-outs stand apart in the source and are kept apart here. Where no end group is shown, it is not given here.

Test system: drug-resistant Mycobacterium tuberculosis

| Compound | inhibition of the growth of Mycobacterium tuberculosis (drug-resistant, 5 micrograms per ml) | inhibition of the growth of Mycobacterium tuberculosis |
| --- | --- | --- |
| CCNC(=O)[C@@H]1CCCN1C(=O)[C@H](CCCN=C(N)N)NC(=O)[C@H](CC(C)C)NC(=O)[C@@H](Cc1c[nH]c2ccccc12)NC(=O)[C@H](Cc1ccc(O)cc1)NC(=O)[C@H](CO)NC(=O)[C@H](Cc1c[nH]c2ccccc12)NC(=O)[C@H](Cc1cnc[nH]1)NC(=O)[C@@H]1CCC(=O)N1 [Peptide 1, Pyr-His-Trp-Ser-Tyr-D-Trp-Leu-Arg-Pro-NHEt] | 100% |  |
| Ile-Asn-Leu-Lys-Ala-Leu-Ala-Ala-Leu-Ala-Lys-Lys-Ile-Leu-NH2 (INLKALAALAKKIL-NH2) [Peptide 2] |  | 100% |
